{
  "source": "ChEMBL document CHEMBL3769367",
  "about": "“Orexin Receptor Antagonists: New Therapeutic Agents for the Treatment of Insomnia” (J Med Chem, 2016)",
  "key": {"[1]": {"experiment": "Plasma protein binding in Wistar rat", "assay_type": "ADME, cell-free", "settings": "read-out: PPB (converted)"}, "Canis familiaris": {"tested_on": "Canis familiaris", "experiment": "Effect on sleep parameter in po dosed Beagle dog by EEG analysis", "assay_type": "functional, Canis lupus familiaris"}, "[2]": {"experiment": "Ratio of drug level in brain to plasma in Wistar rat", "assay_type": "ADME, cell-free", "settings": "read-out: BPR"}, "Rattus norvegicus": {"tested_on": "Rattus norvegicus", "experiment": "Effect on sleep parameter in po dosed Wistar rat by EEG analysis", "assay_type": "functional"}, "[3]": {"experiment": "Plasma protein binding in Beagle dog", "assay_type": "ADME, cell-free, Canis lupus familiaris", "settings": "read-out: PPB (converted)"}, "[4]": {"experiment": "Plasma protein binding in human", "assay_type": "ADME, cell-free", "settings": "read-out: PPB (converted)"}, "[5]": {"experiment": "Clearance in Wistar rat at 1 mg/kg, iv", "assay_type": "ADME, organism-based", "settings": "in vivo"}, "[6]": {"experiment": "Half life in Wistar rat at 1 mg/kg, iv", "assay_type": "ADME, organism-based", "settings": "in vivo"}, "[7]": {"experiment": "Clearance in Beagle dog 1 mg/kg, iv", "assay_type": "ADME, organism-based, Canis lupus familiaris", "settings": "in vivo"}, "[8]": {"experiment": "Half life in Beagle dog 1 mg/kg, iv", "assay_type": "ADME, organism-based, Canis lupus familiaris", "settings": "in vivo"}, "[9]": {"experiment": "Oral bioavailability in Wistar rat at 10 mg/kg", "assay_type": "ADME, organism-based", "settings": "in vivo"}, "[10]": {"experiment": "Oral bioavailability in Beagle dog at 3 mg/kg", "assay_type": "ADME, organism-based, Canis lupus familiaris", "settings": "in vivo"}, "[11]": {"experiment": "Tmax in human at 1 to 1500 mg, po administered as single dose", "assay_type": "ADME, organism-based", "settings": "in vivo"}, "[12]": {"experiment": "Half life in human plasma at 1 to 1500 mg, po administered as single dose", "assay_type": "ADME, organism-based"}},
  "data": [
    {"smiles": "COc1ccc(S(=O)(=O)N2CCC[C@H]2C(=O)Nc2cc(C)cc(C)c2)cc1", "note": "[ACT-462206]", "values": [
      {"measurement": "fraction unbound", "setting": "[1]", "result": 0.007},
      {"measurement": "Activity", "setting": "Canis familiaris", "result": 100, "unit": "mg/kg"},
      {"measurement": "Kp", "setting": "[2]", "result": 0.46},
      {"measurement": "Activity", "setting": "Rattus norvegicus", "result": 100, "unit": "mg/kg"},
      {"measurement": "fraction unbound", "setting": "[3]", "result": 0.011},
      {"measurement": "fraction unbound", "setting": "[4]", "result": 0.007},
      {"measurement": "clearance", "setting": "[5]", "result": 29, "unit": "mL/min/kg"},
      {"measurement": "half-life", "setting": "[6]", "result": 1.9, "unit": "h"},
      {"measurement": "clearance", "setting": "[7]", "result": 11, "unit": "mL/min/kg"},
      {"measurement": "half-life", "setting": "[8]", "result": 1.7, "unit": "h"},
      {"measurement": "bioavailability", "setting": "[9]", "result": 39, "unit": "%"},
      {"measurement": "bioavailability", "setting": "[10]", "result": 52, "unit": "%"},
      {"measurement": "Tmax", "setting": "[11]", "result": 1.5, "unit": "h"},
      {"measurement": "half-life", "setting": "[12]", "result": 10, "unit": "h"}
    ]}
  ]
}
